# Test results as given in ChEMBL document CHEMBL3727358, “Inhibitors of inducible form of 6-phosphofructose-2-kinase” (2014).
# Biological target: 6-phosphofructo-2-kinase/fructose-2,6-bisphosphatase 3 (Homo sapiens, UniProt Q16875)
# Assay: Inhibition of iPFK2 (unknown origin) assessed as reduction in enzyme-mediated fructose-6-phosphate phosphorylation by measuring ATP consumption incubated for 3 hrs by luciferase-luciferin-coupled chemiluminescence assay
# 6-phosphofructo-2-kinase/fructose-2,6-bisphosphatase 3, sequence (Q16875 whole entry): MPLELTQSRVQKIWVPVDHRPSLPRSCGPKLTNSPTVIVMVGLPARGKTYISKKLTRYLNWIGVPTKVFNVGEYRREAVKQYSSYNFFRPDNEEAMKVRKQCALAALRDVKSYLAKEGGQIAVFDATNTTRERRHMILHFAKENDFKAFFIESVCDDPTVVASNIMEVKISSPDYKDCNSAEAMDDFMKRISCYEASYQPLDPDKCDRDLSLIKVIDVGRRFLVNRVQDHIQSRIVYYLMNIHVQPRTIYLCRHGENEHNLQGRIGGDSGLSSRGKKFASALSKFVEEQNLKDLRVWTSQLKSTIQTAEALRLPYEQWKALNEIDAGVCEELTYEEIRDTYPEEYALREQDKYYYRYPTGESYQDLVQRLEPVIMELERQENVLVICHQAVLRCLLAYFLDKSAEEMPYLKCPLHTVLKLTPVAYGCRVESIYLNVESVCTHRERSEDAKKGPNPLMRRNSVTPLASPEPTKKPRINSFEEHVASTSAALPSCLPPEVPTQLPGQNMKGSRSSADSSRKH
row,Structure (SMILES),IC50 [nM]
1,CCCCCC(C)Nc1cc(-c2ccc3ncsc3c2)nc(C)n1 (stereo not drawn),> 1000
2,CCCCCNc1cc(-c2ccc3ncsc3c2)nc(C)n1,> 1000
3,CCOC(=O)CCCOc1cccc(C(C)Nc2cc(-c3ccc4ccn(C)c4c3)nc(C)n2)c1 (stereo not drawn),500
4,Cc1nc(N[C@@H]2CCCc3ccccc32)cc(-c2ccccc2F)n1,> 1000
5,COc1cccc(-c2cc(NC(C)c3cccc(Br)c3)nc(C)n2)c1Cl (stereo not drawn),500
6,Cc1nc(N[C@@H]2CCCc3ccccc32)cc(-c2cccc3c2ccn3C)n1,> 1000
7,Cc1nc(N[C@@H](C)c2cccc(-c3cc[nH]n3)c2)cc(-c2ccc3ncsc3c2)n1,500
8,COC(=O)CN(C(=O)OC(C)(C)C)S(=O)(=O)c1cccc(C(C)Nc2cc(-c3cccc(OC)c3)nc(C)n2)c1 (stereo not drawn),> 1000
9,CC(C)CCC(C)NC1C=C(c2ccc3ncsc3c2)N=CN1C (stereo not drawn),> 1000
10,Cc1nc(NC(C)c2cccc(OCC(=O)NCCN(C)C)c2)cc(-c2ccc3ncsc3c2)n1 (stereo not drawn),500
11,Cc1ccc2c(c1)C(Nc1cc(-c3ccc4ncsc4c3)nc(C)n1)CCO2 (stereo not drawn),> 1000
12,Cc1nc(NCC2CCCN(C(=O)OC(C)(C)C)C2)cc(-c2ccc3ncsc3c2)n1 (stereo not drawn),> 1000
13,Cc1nc(N[C@@H]2CCCc3ccccc32)cc(-c2ccc3c(c2)NCCO3)n1,500
14,CC(=O)N1CCOc2ccc(-c3cc(N[C@@H]4CCCc5ccccc54)nc(C)n3)cc21,> 1000
15,Cc1nc(NC(C)c2cccc(N3CCOCC3)c2)cc(-c2ccc3ncsc3c2)n1 (stereo not drawn),500
16,Cc1nc(NCCCN(C)c2ccccc2)cc(-c2ccc3ncsc3c2)n1,> 1000
17,Cc1cc(COc2cccc(C(C)Nc3cc(-c4cc5ccccc5n4C)nc(C)n3)c2)n(C)n1 (stereo not drawn),500
18,Cc1nc(NC(C)c2cccc(C#N)c2)cc(-c2ccc3ncsc3c2)n1 (stereo not drawn),500
19,CCC(C)Nc1cc(-c2ccc3ncsc3c2)nc(C)n1 (stereo not drawn),> 1000
20,CC(=O)Nc1ccc2c(c1)C(Nc1cc(-c3ccc4ncsc4c3)nc(C)n1)CCO2 (stereo not drawn),> 1000
21,CNc1ccc(-c2cc(N[C@@H]3CCCc4ccccc43)nc(C)n2)cc1,500
22,CCn1cnc2ccc(-c3cc(N[C@@H]4CCCc5ccccc54)nc(C)n3)cc21,> 1000
23,Cc1nc(NC(C)c2cccc(C(=N)N)c2)cc(-c2ccc3ncsc3c2)n1 (stereo not drawn),500
24,COc1cccc(-c2cc(NC3CCc4ccccc43)nc(C)n2)c1Cl (stereo not drawn),500
25,Cc1nc(NC(C)c2cccc(OCCCC(=O)O)c2)cc(-c2ccc3ncsc3c2)n1 (stereo not drawn),500
26,Cc1nc(N[C@@H]2CCCc3ccccc32)cc(-c2ccc(OC(F)(F)F)cc2)n1,> 1000
27,CNC(=O)c1cc(-c2cc(N[C@@H]3CCCc4ccccc43)nc(C)n2)ccc1Cl,> 1000

row,Structure (SMILES),IC50 [nM]
1,Cc1cc(C)c2c(c1)C(Nc1cc(-c3ccc4ncsc4c3)nc(C)n1)CCC2 (stereo not drawn),> 1000
2,Cc1nc(N[C@@H]2CCCc3ccccc32)cc(-c2cccc(O)c2)n1,500
3,Cc1nc(N[C@@H](C)c2ccc(Cl)cc2)cc(-c2ccc3ccn(C)c3c2)n1,> 1000
4,Cc1nc(N[C@@H]2CCCc3ccccc32)cc(-c2cn[nH]c2)n1,> 1000
5,Cc1nc(NC(C)c2cccc(-c3cnn(C)c3)c2)cc(-c2ccc3c(c2)CCO3)n1 (stereo not drawn),500
6,C#CCNS(=O)(=O)c1cccc(C(C)Nc2cc(-c3ccc4ncsc4c3)nc(C)n2)c1 (stereo not drawn),500
7,Cc1nc(N[C@@H]2CCCc3ccccc32)cc(-c2ccc3c(c2)OCCN3C)n1,> 1000
8,Cc1nc(N[C@@H]2CCCc3ccccc32)cc(-c2ccc3c(c2)NCC3)n1,> 1000
9,Cc1nc(N[C@@H]2CCCc3ccccc32)cc(-c2ccc3[nH]ncc3c2)n1,> 1000
10,Cc1nc(N[C@@H]2CCCc3ccccc32)cc(-c2ccc3c(c2)OC(F)(F)O3)n1,> 1000
11,Cc1nc(N[C@@H]2CCCc3ccccc32)cc(-c2cccc(N)c2)n1,> 1000
12,Cc1nc(N[C@H]2CCCc3ccccc32)cc(-c2ccc3ncsc3c2)n1,500
13,Cc1nc(N[C@@H]2CCCc3ccccc32)cc(-c2cccc(C(N)=O)c2)n1,> 1000
14,Cc1nc(N[C@@H]2CCCc3ccccc32)cc(-c2cccc(Cl)c2)n1,500
15,Cc1nc(N[C@@H]2CCCc3ccccc32)cc(-c2ccc3c(c2)N(CCO)CC3)n1,> 1000
16,Cc1nc(NCCC2=CCCCC2)cc(-c2ccc3ncsc3c2)n1,500
17,Cc1nc(N[C@@H]2CCCc3ccccc32)cc(-c2ccc3cn[nH]c3c2)n1,> 1000
18,Cc1nc(N[C@@H]2CCCc3ccccc32)cc(-c2ccccc2Cl)n1,> 1000
19,Cc1nc(NC(C)c2cccnc2)cc(-c2ccc3ncsc3c2)n1 (stereo not drawn),500
20,Cc1nc(NCCc2ccncc2)cc(-c2ccc3ncsc3c2)n1,> 1000
21,Cc1nc(N[C@@H]2CCCc3ccccc32)cc(-c2ccc3c(ccn3C)c2)n1,500
22,COc1cccc(-c2cc(N[C@@H]3CCCc4ccccc43)nc(C)n2)c1Cl,500
23,Cc1nc(N[C@@H]2CCCc3ccccc32)cc(-c2ccc3nc[nH]c3c2)n1,> 1000
24,Cc1nc(N[C@@H]2CCCc3ccccc32)cc(-c2cccnc2)n1,> 1000
25,COC(=O)c1cc(-c2cc(N[C@@H]3CCCc4ccccc43)nc(C)n2)ccc1Cl,500
26,Cc1nc(NCCC(C)C)cc(-c2ccc3ncsc3c2)n1,500

# Results, then the compound that gave them:
row,IC50 [nM],Structure (SMILES)
1,> 1000,Cc1nc(NC(C)c2cccc(OCc3ccccc3)c2)cc(-c2ccc3ncsc3c2)n1 (stereo not drawn)
2,500,COc1cccc(CNc2cc(-c3ccc4occ(C)c4c3)nc(C)n2)c1
3,> 1000,CCOC(=O)CC(Nc1cc(-c2cccc(OC)c2)nc(C)n1)c1cccc(OC)c1 (stereo not drawn)
4,500,Cc1nc(NC(C)c2cccc(O)c2)cc(-c2ccc3ncsc3c2)n1 (stereo not drawn)
5,> 1000,COc1cccc([C@H](C)Nc2cc(-c3cccc4cc[nH]c34)nc(C)n2)c1
6,> 1000,COc1cccc([C@@H](C)Nc2cc(-c3ccc4occ(C)c4c3)nc(C)n2)c1
7,> 1000,COc1cccc(C(C)Nc2cc(-c3ccc4occ(C)c4c3)nc(C)n2)c1F (stereo not drawn)
8,> 1000,COc1cccc(-c2cc(NC(CCO)c3cccc(OC)c3)nc(C)n2)c1 (stereo not drawn)
9,500,Cc1nc(N[C@H](C)c2cccc(-c3cnn(C)c3)c2)cc(-c2ccc3occ(C)c3c2)n1
10,> 1000,COc1cccc([C@H](C)Nc2cc(-c3ccncc3)nc(C)n2)c1
11,> 1000,COc1cccc(-c2cc(NC(C)c3cccc(S(N)(=O)=O)c3)nc(C)n2)c1 (stereo not drawn)
12,> 1000,COc1cccc([C@H](C)Nc2cc(-c3cc(OC)c(OC)c(OC)c3)nc(C)n2)c1
13,500,COc1cc(-c2cc(NC(C)c3cccc(OCC(N)=O)c3)nc(C)n2)ccc1C (stereo not drawn)
14,> 1000,Cc1nc(NC[C@@H](C)c2ccccc2)cc(-c2ccc3ncsc3c2)n1
15,> 1000,COc1cccc(-c2cc(NC3CCCc4ccccc43)nc(C)n2)c1 (stereo not drawn)
16,500,CNC(=O)COc1cccc(C(C)Nc2cc(-c3cccc(OC)c3)nc(C)n2)c1 (stereo not drawn)
17,> 1000,CCc1coc2ccc(-c3cc(NC(C)c4cccc(OCc5cc(C)nn5C)c4)nc(C)n3)cc12 (stereo not drawn)
18,> 1000,COc1ccc2c(c1)C(Nc1cc(-c3ccc4ncsc4c3)nc(C)n1)CCC2 (stereo not drawn)
19,> 1000,COc1cccc([C@H](C)Nc2cc(-c3ccc(N(C)C)cc3)nc(C)n2)c1
20,> 1000,COc1cccc([C@H](C)Nc2cc(-c3ccc4ncn(C)c4c3)nc(C)n2)c1
21,500,Cc1nc(NC(C)c2cccc(OCCCN(C)C)c2)cc(-c2ccc3ncsc3c2)n1 (stereo not drawn)
22,> 1000,COC(=O)COc1cccc(C(C)Nc2cc(-c3cccc(OC)c3)nc(C)n2)c1 (stereo not drawn)
23,500,Cc1nc(NC(C)c2cccc(OCC(O)CF)c2)cc(-c2ccc3ncsc3c2)n1 (stereo not drawn)
24,> 1000,COc1ccc(F)c(CNc2cc(-c3ccc4ncsc4c3)nc(C)n2)c1Cl
25,500,COc1cccc([C@H](C)Nc2cc(-c3cccc(OC)c3F)nc(C)n2)c1

row,IC50 [nM],Structure (SMILES)
1,> 1000,COc1cccc([C@H](C)Nc2cc(-c3cc(OC)ccc3Cl)nc(C)n2)c1
2,500,CNC(=O)COc1cccc(C(C)Nc2cc(-c3ccc4c(c3)OCO4)nc(C)n2)c1 (stereo not drawn)
3,> 1000,COc1cccc([C@H](C)Nc2cc(-c3ccc(F)cc3)nc(C)n2)c1
4,> 1000,COc1cccc(-c2cc(N[C@H]3CCCc4ccccc43)nc(C)n2)c1
5,> 1000,COC(=O)CNc1cccc(C(C)Nc2cc(-c3cccc(OC)c3)nc(C)n2)c1 (stereo not drawn)
6,> 1000,COc1cccc([C@H](C)Nc2cc(-c3ccc4c(ccn4C)c3)nc(C)n2)c1
7,> 1000,CCCOc1cccc(C(C)Nc2cc(-c3ccc4ncsc4c3)nc(C)n2)c1 (stereo not drawn)
8,500,Cc1nc(NC(C)c2cccc(OCCF)c2)cc(-c2ccc3ncsc3c2)n1 (stereo not drawn)
9,> 1000,CCOC(=O)Cc1coc2ccc(-c3cc(N[C@@H]4CCCc5ccccc54)nc(C)n3)cc12
10,500,Cc1nc(NC(C)c2cccc(OCc3csc(C)n3)c2)cc(-c2ccc3ncsc3c2)n1 (stereo not drawn)
11,> 1000,COC(=O)CNS(=O)(=O)c1cccc(C(C)Nc2cc(-c3cccc(OC)c3)nc(C)n2)c1 (stereo not drawn)
12,> 1000,COc1cccc(-c2cc(Nc3cccc4ccccc34)nc(C)n2)c1
13,500,COc1cccc([C@H](C)Nc2cc(-c3cccc(C)c3)nc(C)n2)c1
14,> 1000,COc1cccc(-c2cc(NC(CC(=O)NCCCN(C)C)c3cccc(OC)c3)nc(C)n2)c1 (stereo not drawn)
15,> 1000,Cc1nc(NCc2cccc(-n3cccc3)c2)cc(-c2ccc3ncsc3c2)n1
16,500,Cc1nc(N[C@@H](C)c2cccc(-c3ccccc3)c2)cc(-c2ccc3occ(C)c3c2)n1
17,> 1000,Cc1nc(N[C@@H]2CCCc3ccccc32)cc(-c2cccc(CO)c2)n1
18,500,COc1cccc(-c2cc(NC(C)c3cccc(S(=O)(=O)NCC#N)c3)nc(C)n2)c1 (stereo not drawn)
19,> 1000,CCOc1cccc(-c2cc(N[C@@H]3CCCc4ccccc43)nc(C)n2)c1
20,> 1000,Cc1nc(NC(C)c2cccc(-c3noc(C)n3)c2)cc(-c2ccc3ncsc3c2)n1 (stereo not drawn)
21,> 1000,COc1cccc([C@H](C)Nc2cc(-c3ccccc3Cl)nc(C)n2)c1
22,> 1000,CCn1ccc2ccc(-c3cc(N[C@@H](C)c4cccc(OC)c4)nc(C)n3)cc21
23,> 1000,CCc1coc2ccc(-c3cc(N[C@@H](C)c4cccc(OC)c4)nc(C)n3)cc12
24,> 1000,CCc1cccc(-c2cc(N[C@@H]3CCCc4ccccc43)nc(C)n2)c1
25,> 1000,COc1cccc([C@H](C)Nc2cc(-c3cccnc3)nc(C)n2)c1
